According to PMC6749521, “The Effect of Flavonoid Aglycones on the CYP1A2, CYP2A6, CYP2C8 and CYP2D6 Enzymes Activity” (Molecules, 2019):

Tests used:
CYP1A2 [1] = biological target: T1, CYP1A2 (Homo sapiens, UniProt P05177); assay: CYP1A2 enzyme activity, phenacetin O-deethylation (MDI, TDI, DI assays), recombinant baculosomes
T1 sequence (P05177 1-516): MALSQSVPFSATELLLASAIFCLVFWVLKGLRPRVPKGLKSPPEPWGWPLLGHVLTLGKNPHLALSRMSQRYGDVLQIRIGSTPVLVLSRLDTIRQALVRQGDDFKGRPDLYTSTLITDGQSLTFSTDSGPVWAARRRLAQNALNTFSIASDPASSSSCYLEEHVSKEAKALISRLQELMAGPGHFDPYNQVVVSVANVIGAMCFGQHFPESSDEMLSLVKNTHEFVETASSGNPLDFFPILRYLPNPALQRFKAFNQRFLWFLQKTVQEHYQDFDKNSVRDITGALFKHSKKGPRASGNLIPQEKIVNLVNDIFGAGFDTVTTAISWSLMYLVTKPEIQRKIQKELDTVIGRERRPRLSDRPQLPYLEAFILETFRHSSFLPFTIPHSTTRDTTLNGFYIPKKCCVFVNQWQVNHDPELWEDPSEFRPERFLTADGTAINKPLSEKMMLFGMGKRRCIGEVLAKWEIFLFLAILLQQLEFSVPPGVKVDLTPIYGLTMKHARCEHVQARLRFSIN
Procedure: (§1) The recombinant baculosomes with hyperexpressed cytochromes P450 (1A2, 2A6, 2C8, and 2D6) and coexpressed NADPH cytochrome P450 reductase and cytochrome b5 were used as a source of enzyme. Baculosomes were commercially obtained from Thermo Fisher Scientific (Waltham, MA, USA), and all other chemicals from Sigma-Aldrich if not otherwise indicated. A 1.0 M solution phosphate buffer of pH 7.4 was prepared in house. NADPH generating system was prepared of 0.1 M glucose-6-phosphate, 10 mg mL^−1 NADP^+, and 1000 IU mL^−1 glucose-6-phosphate dehydrogenase in ratio 100:50:2 (v/v/v).
Phenacetine O-deethylation was used as a marker reaction for monitoring CYP1A2 enzyme activity (Figure 2). Incubations of 100 µL were conducted at the temperature of 37 °C. The pH of the incubation mixture was set at 7.4 using a potassium phosphate buffer (final concentration 50 mM). The total amount of CYP1A2 enzyme was 5 pmol, and the final concentration of substrate was 150 µM. Residual activity was determined by incubating the flavonoid (1 µM) with phenacetine as a substrate for 15 min, with or without preincubation, depending of the type of inhibition assay. Reactions were started by the addition of 15 µL of NADPH generating system, while the reactions were stopped by the addition of 1 mL 1% formic acid in acetonitrile. After centrifugation (10 min, 1900× g), the clear solution was transferred to a vial for HPLC analysis.
HPLC analysis was performed on Agilent 1100 instrument (Santa Clara, CA, USA) coupled with a diode array detector (DAD) on Luna C18 column (4.6 × 150 mm, 3 μm). The gradient method was used for separation. Mobile phase A consisted of water, acetonitrile, and glacial acetic acid in the volume ratio of 90:10:0.1, while mobile phase B contained the same solvents in the ratio 10:90:0.1. The following gradient timetable was used (t/min, %B): (0, 0), (2, 0), (13, 55), (14, 0), (20, 0). The flow rate was 1 mL/min, and chromatograms were recorded at 254 nm. Volume of incubation injected to the column was 15 µL. […] The amount of generated product (acetaminophen) was determined as the area under the curve based on the calibration curve of the standard.
(§2) Three types of experiments were conducted to determine metabolism dependent inhibition, time dependent inhibition, and direct inhibition of CYP1A2, CYP2A6, CYP2C8, and CYP2D6 enzymes.
(§3) To determine metabolism dependent inhibition (MDI assay), the flavonoid was first preincubated with the enzyme with the addition of the generating system for 30 min, after which the marker substrate was added to determine residual enzyme activity (as described above for each enzyme).
(§4) If metabolism dependent inhibition was determined, time dependent inhibition and direct inhibition were tested. Time dependent inhibition (TDI assay) was assessed by preincubating the flavonoid and enzyme, without the generating system, after which residual activity was determined by adding the NADPH generating system along with the substrate (as described above for each enzyme).
(§5) The direct inhibition assay (DI assay) was conducted without preincubation, i.e., the NADPH generating system was added to the incubation mixture containing flavonoid and substrate following the experimental set-up described above for each individual cytochrome P450 enzyme.
(§6) Pure time dependent inhibitors require time to interact with the enzyme. Thus, TDI inhibitors will show a reduction of enzyme activity in assays with preincubations, i.e., the MDI and TDI assays, but not in the DI assay (no preincubation). […] DI inhibitors will reduce enzyme activity in all three assays (MDI, TDI, and DI).
(§7) All incubations were conducted in triplicate. The results are expressed as the residual activity of the enzyme, i.e., the percentage of product generated in incubation with the addition of flavonoid in ratio to the control without flavonoid.

CYP2A6 = biological target: T2, CYP2A6 (Homo sapiens, UniProt P11509); assay: CYP2A6 enzyme activity, coumarin 7-hydroxylation (MDI, TDI, DI assays), recombinant baculosomes
T2 sequence (P11509 1-494): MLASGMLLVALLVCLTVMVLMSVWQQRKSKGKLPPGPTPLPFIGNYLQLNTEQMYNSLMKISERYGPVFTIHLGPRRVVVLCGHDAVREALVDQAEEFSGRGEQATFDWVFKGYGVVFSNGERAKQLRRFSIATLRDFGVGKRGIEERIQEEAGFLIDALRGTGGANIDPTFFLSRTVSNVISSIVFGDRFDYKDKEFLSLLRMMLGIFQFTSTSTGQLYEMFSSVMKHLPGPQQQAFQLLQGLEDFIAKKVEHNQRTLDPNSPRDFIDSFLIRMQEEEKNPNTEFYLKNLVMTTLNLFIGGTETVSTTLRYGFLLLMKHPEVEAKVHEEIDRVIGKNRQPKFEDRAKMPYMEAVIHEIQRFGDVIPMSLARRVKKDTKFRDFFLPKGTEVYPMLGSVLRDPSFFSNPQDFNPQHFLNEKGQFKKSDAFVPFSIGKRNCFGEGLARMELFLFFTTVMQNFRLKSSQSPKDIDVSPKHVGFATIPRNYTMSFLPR
Procedure: as §1
The aromatic hydroxylation of coumarin at the position 7 was used as a marker reaction for CYP2A6. The incubation conditions were the same as for CYP1A2 enzyme (vide supra) unless otherwise stated. The final concentration of coumarin was 10 µM, while the incubation time was extended to 30 min.
HPLC-DAD analysis was conducted on the same system as the CYP1A2 enzyme with the following modifications: The gradient timetable (t/min, %B) was (0, 20), (1.5, 20), (10, 70), (11, 20), (17, 20), and the detection wavelength was 330 nm. The retention time of the substrate (coumarin) was 7.5 min, while the product (7-hydroxycoumarin) was detected at 4.8 min. The amount of generated product was determined as the area under the curve based on the calibration curve of the standard.
as §2, §3, §4, §5, §6
as §7, with “flavonoid. The statistical significance was tested with Student’s t-test in the program R (The R Project for Statistical Computing, Vienna, Austria).” for “flavonoid.”

CYP1A2 [2] = tested on: CYP1A2; set-up: method as in ref 28 (Chang et al.); conditions: ref 28 (Chang et al.); read-out: Inhibition constant, competitive inhibition of CYP1A2-mediated 7-ethoxyresorufin O-dealkylation; cited from earlier work
CYP3A4 = tested on: CYP3A4; set-up: method as in PMID 30301254; conditions: statistical significance p < 0.1; cited from earlier work

## COc1cc(-c2oc3cc(O)cc(O)c3c(=O)c2O)ccc1O [isorhamnetin]
CYP1A2 [1]; 1 µM flavonoid
  Inhibition of CYP1A2 activity: inhibited
CYP1A2 [1]; concluded from MDI, TDI, DI assays at 1 µM
  Type of CYP1A2 inhibition: reversible inhibitor
CYP1A2 [1]; human, pH 7.4
  activity at 15 min, 1 µM: 8 ± 2%
CYP2A6; 1 µM flavonoid
  Inhibition of CYP2A6 enzyme activity: inhibited
CYP2A6; human, pH 7.4
  inhibition at 30 min, 1 µM: 16 ± 5%
CYP1A2 [2]
  Ki: 0.14 µM
CYP3A4
  Inhibition of CYP3A4 metabolic activity: inhibition
